Laboratory results as given in PubChem BioAssay (NCI).
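Each compound was tested at five concentrations against cells in 96-well plates for 48 hours. At the GI50, growth is halved. TGI: concentration producing complete growth inhibition.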

Key:
Assay in all cases: NCI anticancer screen, dose series, 48 h
NCI-H460 lung = system: NCI-H460 lung
HS 578T breast = system: HS 578T breast
MDA-MB-435 = system: MDA-MB-435
UACC-257 melanoma = system: UACC-257 melanoma
SK-MEL-28 melanoma = system: SK-MEL-28 melanoma
SF-539 CNS = system: SF-539 CNS
SK-MEL-2 melanoma = system: SK-MEL-2 melanoma
NCI-H23 lung = system: NCI-H23 lung
OVCAR-8 ovarian = system: OVCAR-8 ovarian
SK-MEL-5 melanoma = system: SK-MEL-5 melanoma

Row | SMILES | TGI (NCI-H460 lung) | TGI (HS 578T breast) | TGI (MDA-MB-435) | TGI (UACC-257 melanoma) | TGI (SK-MEL-28 melanoma) | TGI (SF-539 CNS) | TGI (SK-MEL-2 melanoma) | TGI (NCI-H23 lung) | TGI (OVCAR-8 ovarian) | TGI (SK-MEL-5 melanoma) | GI50 (NCI-H460 lung) | GI50 (HS 578T breast) | GI50 (MDA-MB-435) | GI50 (UACC-257 melanoma) | GI50 (SK-MEL-28 melanoma) | GI50 (SF-539 CNS) | GI50 (SK-MEL-2 melanoma) | GI50 (SK-MEL-5 melanoma) | GI50 (NCI-H23 lung) | GI50 (OVCAR-8 ovarian)
1 | O=c1c2c([nH]c3nccn13)CCC2 | > 10 µM | > 10 µM | > 10 µM | > 10 µM | > 10 µM | > 10 µM | > 10 µM | > 10 µM | > 10 µM | > 10 µM | – | – | – | – | – | – | – | – | – | –
2 | C=C(C)[C@@H]1CCC=C2CC[C@]3(C)[C@H](CC[C@@H]4[C@@]5(C)CCCNC(C)(C)[C@@H]5CC[C@]43C)[C@H]21 | 3.73 µM | 4.87 µM | 3.11 µM | 9.32 µM | 4.07 µM | 3.58 µM | 5.5 µM | – | – | 14 µM | 1.93 µM | 2.01 µM | 1.66 µM | 3.34 µM | 2.03 µM | 1.89 µM | 2.34 µM | 3.58 µM | – | –
3 | c1ccc(-c2nn3c(c2-c2ccnc4cc(OCCN5CCOCC5)ccc24)CCC3)nc1 | > 100 µM | > 100 µM | > 100 µM | > 100 µM | > 100 µM | > 100 µM | > 100 µM | > 100 µM | > 100 µM | > 100 µM | 33.6 µM | > 100 µM | 25.8 µM | > 100 µM | > 100 µM | > 100 µM | > 100 µM | 43.9 µM | > 80.6 µM | > 82.6 µM
4 | O=[N+]([O-])/C=C/c1c(Cl)cccc1Cl | 21 µM | > 62.9 µM | 4.62 µM | 10.2 µM | 10.9 µM | 5.12 µM | 14 µM | 16.8 µM | 4.13 µM | 8.78 µM | – | – | – | – | – | – | – | – | – | –
5 | OCCCCC#Cc1ccccc1C#Cc1ccc(O)cc1 | 48.6 µM | 77.1 µM | 31 µM | 33.9 µM | 27.8 µM | 35.9 µM | 43 µM | 28.7 µM | 34.9 µM | 32.2 µM | 20.6 µM | 26.2 µM | 16.1 µM | 18.5 µM | 14.2 µM | 17.9 µM | 20.8 µM | 17.7 µM | 14.3 µM | 17.1 µM
6 | COc1ccc(-c2c(C)c(C(=O)O)nc(-c3ccc4c(O)c(OC)c5c(c4n3)=NC(C)(C)N=5)c2N)c(O)c1OC | 17 µM | > 100 µM | 30.7 µM | 98.4 µM | 59.8 µM | 35.5 µM | 41.4 µM | 6.95 µM | 21.5 µM | 25.4 µM | – | – | – | – | – | – | – | – | – | –
7 | O=[N+]([O-])c1cc[n+]([O-])c2ccccc12 | 0.162 µM | 0.703 µM | 1.31 µM | 0.77 µM | 2.64 µM | 0.541 µM | 0.377 µM | 1.56 µM | 2.12 µM | 0.437 µM | 0.033 µM | 0.216 µM | 0.436 µM | 0.229 µM | 1.24 µM | 0.181 µM | 0.169 µM | 0.184 µM | 0.328 µM | 0.33 µM
